# Reference: the SangsterLogP compilation
# Assay: method code SF-AS, from DOI: 10.1002/zfch.19780180919
row,SMILES,logP
1,NNC(=O)c1ccc(Cl)cc1,1.12
2,COc1ccccc1C(=O)NN,0.25
3,NNC(=O)c1ccc(N)cc1,-0.75
4,NNC(=O)c1ccc([N+](=O)[O-])cc1,0.35
5,NNC(=O)c1ccccc1N,-0.18
6,Cc1ccccc1C(=O)NN,0.22
7,NNC(=O)c1ccccc1O,0.6
8,NNC(=O)c1ccccc1Cl,0.14
9,Cc1ccc(C(=O)NN)cc1,0.73
10,NNC(=O)c1ccc(I)cc1,1.55
11,COc1ccc(C(=O)NN)cc1,0.25
12,NNC(=O)c1ccccc1[N+](=O)[O-],-0.54
13,NNC(=O)c1ccccc1I,0.47
14,NNC(=O)c1ccc(O)cc1,-0.33

# Now from value to molecule:
row,logP,SMILES
1,0.23,NNC(=O)c1cccc([N+](=O)[O-])c1
2,-0.08,NNC(=O)c1cccc(O)c1
3,0.74,Cc1cccc(C(=O)NN)c1
4,1.53,NNC(=O)c1cccc(I)c1
5,-0.86,NNC(=O)c1cccc(N)c1
6,1.28,NNC(=O)c1ccc(Br)cc1
7,1.18,NNC(=O)c1cccc(Cl)c1
8,1.26,NNC(=O)c1cccc(Br)c1
9,0.4,COc1cccc(C(=O)NN)c1
10,0.26,NNC(=O)c1ccccc1Br
